Experimental data published in patent publication US6355799B1, “Substituted benzene compounds, process for their preparation, and herbicidal and defoliant compositions containing them” (ISK Americas Incorporated, priority 1997, dated 2002).

Columns and labels:
Type in all cases: in vivo
[1] = test system: upland rice (Oryza sp., var. Tebonnet, RICE); assay: Post-emerge test, crop safety; settings: post-emerge, 14 days after application, rating scale 0-100
Procedure, shortened: (§1)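 Plants grown in 10 cm pots of sandy loam mix received acetone-dissolved compounds through a moving flat-fan nozzle. Doses ranged from 15 to 1000 g ai/ha. Pre-emerge pots were seeded one day earlier, post-emerge pots 8–21 days earlier. Fourteen days on, each pot was graded 0–100 for damage.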

[2] = test system: field corn (Zea mays L., var. Dekalb 535, CORN); assay: Post-emerge test, crop safety; settings: post-emerge, 14 days after application, rating scale 0-100
Procedure, shortened: as §1

[3] = test system: sicklepod (Cassia obtusifolia, CASOB); assay: Pre-emerge test, greenhouse herbicide activity screening; settings: phytotoxicity rating 0-100, 14 days after application
Procedure, shortened: (§2)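 Rating: 0–100 visual injury, 14 DAA. Application: acetone, 187 l/ha, 15–1000 g ai/ha, flat-fan track sprayer with nozzle 40–45 cm above soil or canopy. Post-emerge runs used 0.25% v/v surfactant on 2–3 leaf plants.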

[4] = test system: velvetleaf (Abutilon theophrasti, ABUTH); assay: as above; settings: phytotoxicity rating 0-100, 14 days after application
Procedure, shortened: as §2

[5] = test system: green foxtail (Setaria viridis, SETVI); assay: as above; settings: phytotoxicity rating 0-100, 14 days after application
Procedure, shortened: as §2

[6] = test system: johnsongrass (Sorghum halepense, SORHA); assay: as above; settings: phytotoxicity rating 0-100, 14 days after application
Procedure, shortened: as §2

[7] = test system: lambsquarters (Chenopodium album, CHEAL); assay: as above; settings: phytotoxicity rating 0-100, 14 days after application
Procedure, shortened: as §2

[8] = test system: ivyleaf morningglory (Ipomoea hederacea, IPOHE); assay: as above; settings: phytotoxicity rating 0-100, 14 days after application
Procedure, shortened: as §2

[9] = test system: barnyardgrass (Echinochloa crus-galli, ECHCG); assay: as above; settings: phytotoxicity rating 0-100, 14 days after application
Procedure, shortened: as §2

[10] = test system: large crabgrass (Digitaria sanguinalis, DIGSA); assay: as above; settings: phytotoxicity rating 0-100, 14 days after application
Procedure, shortened: as §2

[11] = test system: redroot pigweed (Amaranthus retroflexus, AMARE); assay: as above; settings: phytotoxicity rating 0-100, 14 days after application
Procedure, shortened: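 Sandy loam pots; pre-emerge: sown 1 d pre-spray, surface-watered after, then bottom-watered. Post-emerge: sown 8–21 d before, 2–3 leaf stage, + 0.25% v/v NIS, bottom-watered. Acetone, 187 l/ha track spray, 15–1000 g ai/ha. 0–100 injury score, day 14.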

[12] = test system: upland rice (Oryza sp., var. Tebonnet, RICE); assay: Pre-emerge test, crop safety; settings: crop damage rating 0-100, 14 days after application
Procedure, shortened: (§3)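 Visual ratings on a 0-100 scale (0 no damage, 100 all plants dead) were taken at 14 days after treatment. Rates of 15-1000 g ai/ha in acetone, 187 l/ha, were sprayed onto soil one day after planting (pre-emerge) or onto 2-3 leaf plants with 0.25% v/v surfactant (post-emerge).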

[13] = test system: field corn (Zea mays L., var. Dekalb 535, CORN); assay: Pre-emerge test, crop safety; settings: crop damage rating 0-100, 14 days after application
Procedure, shortened: as §3

[14] = test system: sicklepod (Cassia obtusifolia, CASOB); assay: Post-emerge test, greenhouse herbicide activity screening; settings: post-emerge, 14 days after application, rating scale 0-100
Procedure, shortened: (§4)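 Compounds in acetone were track-sprayed at 15–1000 g ai/ha: pre-emergence onto soil sown the previous day, then top-watered to incorporate and later bottom-watered; post-emergence onto 2–3 leaf plants with 0.25% v/v surfactant, bottom-watered only. Ratings on a 0–100 phytotoxicity scale were taken at day 14.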

[15] = test system: velvetleaf (Abutilon theophrasti, ABUTH); assay: as above; settings: post-emerge, 14 days after application, rating scale 0-100
Procedure, shortened: as §4

[16] = test system: green foxtail (Setaria viridis, SETVI); assay: as above; settings: post-emerge, 14 days after application, rating scale 0-100
Procedure, shortened: as §4

[17] = test system: johnsongrass (Sorghum halepense, SORHA); assay: as above; settings: post-emerge, 14 days after application, rating scale 0-100
Procedure, shortened: as §4

[18] = test system: lambsquarters (Chenopodium album, CHEAL); assay: as above; settings: post-emerge, 14 days after application, rating scale 0-100
Procedure, shortened: as §4

[19] = test system: ivyleaf morningglory (Ipomoea hederacea, IPOHE); assay: as above; settings: post-emerge, 14 days after application, rating scale 0-100
Procedure, shortened: as §4

[20] = test system: barnyardgrass (Echinochloa crus-galli, ECHCG); assay: as above; settings: post-emerge, 14 days after application, rating scale 0-100
Procedure, shortened: as §4

[21] = test system: large crabgrass (Digitaria sanguinalis, DIGSA); assay: as above; settings: post-emerge, 14 days after application, rating scale 0-100
Procedure, shortened: as §4

[22] = test system: redroot pigweed (Amaranthus retroflexus, AMARE); assay: as above; settings: post-emerge, 14 days after application
Procedure, shortened: as §4

For Cn1c(C(F)(F)F)cc(=O)n(-c2ccc(OC(F)(F)F)cc2NC(=O)c2ccc3ccccc3c2)c1=O [2-203], the “phytotoxicity rating RICE (crop damage)” value ([1]; 63 g ai/ha) was 25, the “phytotoxicity rating RICE (crop damage)” value ([1]; 250 g ai/ha) was 30 and the “phytotoxicity rating CORN (crop damage)” value ([2]; 63 g ai/ha) was 10. For the same compound, the “phytotoxicity rating CORN (crop damage)” value ([2]; 250 g ai/ha) was 10, the “Pre-emerge Herbicidal Activity CASOB” value ([3]; 63 g ai/ha) was 30 and the “Pre-emerge Herbicidal Activity CASOB” value ([3]; 250 g ai/ha) was 90. For the same compound, the “Pre-emerge Herbicidal Activity ABUTH” value ([4]; 63 g ai/ha) was 75, the “Pre-emerge Herbicidal Activity ABUTH” value ([4]; 250 g ai/ha) was 100 and the “Pre-emerge Herbicidal Activity SETVI” value ([5]; 63 g ai/ha) was 20. For the same compound, the “Pre-emerge Herbicidal Activity SETVI” value ([5]; 250 g ai/ha) was 70, the “Pre-emerge Herbicidal Activity SORHA” value ([6]; 63 g ai/ha) was 0 and the “Pre-emerge Herbicidal Activity SORHA” value ([6]; 250 g ai/ha) was 40. For the same compound, the “Pre-emerge Herbicidal Activity CHEAL” value ([7]; 63 g ai/ha) was 100, the “Pre-emerge Herbicidal Activity CHEAL” value ([7]; 250 g ai/ha) was 100 and the “Pre-emerge Herbicidal Activity IPOHE” value ([8]; 63 g ai/ha) was 10. The “Pre-emerge Herbicidal Activity IPOHE” value ([8]; 250 g ai/ha) was 70, the “Pre-emerge Herbicidal Activity ECHCG” value ([9]; 63 g ai/ha) was 0 and the “Pre-emerge Herbicidal Activity ECHCG” value ([9]; 250 g ai/ha) was 80. The “Pre-emerge Herbicidal Activity DIGSA” value ([10]; 63 g ai/ha) was 60, the “Pre-emerge Herbicidal Activity DIGSA” value ([10]; 250 g ai/ha) was 90 and the “Pre-emerge Herbicidal Activity AMARE” value ([11]; 63 g ai/ha) was 70. The “Pre-emerge Herbicidal Activity AMARE” value ([11]; 250 g ai/ha) was 100, the “Pre-emerge Herbicidal Activity RICE” value ([12]; 63 g ai/ha) was 10 and the “Pre-emerge Herbicidal Activity RICE” value ([12]; 250 g ai/ha) was 20. For the same compound, the “Pre-emerge Herbicidal Activity CORN” value ([13]; 63 g ai/ha) was 0, the “Pre-emerge Herbicidal Activity CORN” value ([13]; 250 g ai/ha) was 0 and the “phytotoxicity rating CASOB” value ([14]; 63 g ai/ha) was 100. The “phytotoxicity rating CASOB” value ([14]; 250 g ai/ha) was 100, the “phytotoxicity rating ABUTH” value ([15]; 63 g ai/ha) was 100 and the “phytotoxicity rating ABUTH” value ([15]; 250 g ai/ha) was 100. For the same compound, the “phytotoxicity rating SETVI” value ([16]; 63 g ai/ha) was 20, the “phytotoxicity rating SETVI” value ([16]; 250 g ai/ha) was 30 and the “phytotoxicity rating SORHA” value ([17]; 63 g ai/ha) was 10. For the same compound, the “phytotoxicity rating SORHA” value ([17]; 250 g ai/ha) was 20, the “phytotoxicity rating CHEAL” value ([18]; 63 g ai/ha) was 100 and the “phytotoxicity rating CHEAL” value ([18]; 250 g ai/ha) was 100. The “phytotoxicity rating IPOHE” value ([19]; 63 g ai/ha) was 60, the “phytotoxicity rating IPOHE” value ([19]; 250 g ai/ha) was 95 and the “phytotoxicity rating ECHCG” value ([20]; 63 g ai/ha) was 10. The “phytotoxicity rating ECHCG” value ([20]; 250 g ai/ha) was 30, the “phytotoxicity rating DIGSA” value ([21]; 63 g ai/ha) was 10 and the “phytotoxicity rating DIGSA” value ([21]; 250 g ai/ha) was 30. The “phytotoxicity rating AMARE” value ([22]; 63 g ai/ha, rating scale 0-100 (0 no damage, 100 complete death)) was 100 and the “phytotoxicity rating AMARE” value ([22]; 250 g ai/ha, rating scale 0-100) was 100.
